Consider 17 molecules from publication PMC7587356, “High-Throughput Screening for Inhibitors of the SARS-CoV-2 Protease Using a FRET-Biosensor” (Molecules, 2020).

This assay deals with SARS-CoV-2 3CLpro (Severe acute respiratory syndrome coronavirus 2, UniProt P0DTD1). Briefly: biochemical. In kind it is biochemical. The settings on record: for inhibition at 5 µM: 4 h. Also noted: Replicate_1 / Replicate_2 / mean / mean (LOPAC_screen_w_protease): unit not given here.
Setting [1] is: sheet LOPAC_screen_w_protease, LOPAC1280 primary screen at 5 µM, with protease, mean of the two replicates.
Setting [2] is: sheet LOPAC_screen_w_protease, LOPAC1280 primary screen at 5 µM, with protease, replicate 1.
Setting [3] is: sheet LOPAC_screen_w_protease, LOPAC1280 primary screen at 5 µM, with protease, replicate 2.
The mark [4] stands for this setting: LOPAC1280 primary screen with protease, 5 µM compound, mean of two replicates.
Setting [5] is: sheet LOPAC_screen_w_protease, primary screen of LOPAC1280 at 5 µM with protease, mean of the two replicates, read-out: mean.
[6] abbreviates: sheet LOPAC_screen_w_protease, primary screen of LOPAC1280 at 5 µM with protease, replicate 1, read-out: Replicate_1.
The mark [7] stands for this setting: sheet LOPAC_screen_w_protease, primary screen of LOPAC1280 at 5 µM with protease, replicate 2, read-out: Replicate_2.
[8] abbreviates: sheet LOPAC_screen_w_protease, primary screen with protease, compound at 5 µM, mean of two replicates.
The mark [9] stands for this setting: sheet LOPAC_screen_w_protease, primary screen with protease, compound at 5 µM, replicate 1.
[10] abbreviates: sheet LOPAC_screen_w_protease, primary screen with protease, compound at 5 µM, replicate 2.

Counter-ions that a name gives are not always drawn. Like-named read-outs stand apart in the source and are kept apart here.

`CC(=O)[C@H]1CC[C@H]2[C@@H]3CC[C@H]4C[C@H](O)CC[C@]4(C)[C@H]3CC[C@]12C` [5alpha-Pregnan-3alpha-ol-20-one] registered a mean under setting [1] of 0.7105. Under setting [2], the Replicate_1 is recorded as 1.221. Further, under setting [3], the Replicate_2 is listed as 0.1995.

With `C#CCOC(=O)C1=CCCN(C)C1` [Arecaidine propargyl ester hydrobromide], the inhibition at 5 µM reads like this: (sheet LOPAC_screen_w_protease, LOPAC1280 at 5 µM, mean of two replicates, read-out: mean) 1.23%; (sheet LOPAC_screen_w_protease, LOPAC1280 at 5 µM, replicate 1, read-out: Replicate_1) 0.854%; (sheet LOPAC_screen_w_protease, LOPAC1280 at 5 µM, replicate 2, read-out: Replicate_2) 1.62%.

`CCCCCCN(CCCCCC)C(=O)Cc1c(-c2ccc(F)cc2)[nH]c2ccccc12` came in with a mean (sheet LOPAC_screen_w_protease, LOPAC1280 primary screen with protease, 5 µM compound, mean of the two replicates) of 4.628. The molecule further showed a Replicate_1 (sheet LOPAC_screen_w_protease, LOPAC1280 primary screen with protease, 5 µM compound, replicate 1) of 5.9351. In addition, where the note is “sheet LOPAC_screen_w_protease, LOPAC1280 primary screen with protease, 5 µM compound, replicate 2”, the Replicate_2 is on record as 3.32.

`COc1ccc2[nH]c3c(c2c1)CCNC3` showed a mean under setting [1] of 0.4216. This molecule also gave a Replicate_1 under setting [2] of 0.4542. The molecule also came in with a Replicate_2 under setting [3] of 0.3889.

Consider `CCOC(=O)[N-]c1cn(N2CCOCC2)n[o+]1` [Molsidomine], for which the inhibition at 5 µM is, setting by setting: (sheet LOPAC_screen_w_protease, primary screen with protease, compound at 5 µM, mean of two replicates, read-out: mean) 2.83%; (sheet LOPAC_screen_w_protease, primary screen with protease, compound at 5 µM, replicate 1, read-out: Replicate_1) 1.44%; (sheet LOPAC_screen_w_protease, primary screen with protease, compound at 5 µM, replicate 2, read-out: Replicate_2) 4.23%.

For the setting “sheet LOPAC_screen_w_protease, primary screen of LOPAC1280 at 5 µM with protease, mean of the two replicates”, `NC(Cc1ccc(Cl)cc1)C(=O)O` (racemic) [(±)-p-Chlorophenylalanine] returned a mean of 3.154. In addition, the Replicate_1 (sheet LOPAC_screen_w_protease, primary screen of LOPAC1280 at 5 µM with protease, replicate 1) was 1.596. For the same molecule, the Replicate_2 (sheet LOPAC_screen_w_protease, primary screen of LOPAC1280 at 5 µM with protease, replicate 2) is given as 4.711.

Consider `NCCCNCCCCNCCCN` [Spermine tetrahydrochloride], for which the inhibition at 5 µM reads like this: (read-out: Replicate_1) 3.94%; (read-out: Replicate_2) 4.24%; (read-out: mean) 4.09%.

As for `CC1CNCCN1S(=O)(=O)c1cccc2cnccc12.Cl.Cl` (stereo not drawn), the “mean (LOPAC screen with protease)” value (sheet LOPAC_screen_w_protease, primary screen at 5 µM, mean of two replicates) was 12.1111. The “Replicate_1 (LOPAC screen with protease)” value (sheet LOPAC_screen_w_protease, primary screen at 5 µM, replicate 1) came to 12.4365. The “Replicate_2 (LOPAC screen with protease)” value (sheet LOPAC_screen_w_protease, primary screen at 5 µM, replicate 2) turned out to be 11.7856.

On to `CCCN(CCC)[C@@H]1CCc2c(F)ccc(O)c2C1.Cl` [R(+)-UH-301 hydrochloride], for which the “mean (LOPAC_screen_w_protease)” value under setting [4] came out at 1.335. Also, where the note is “LOPAC1280 primary screen with protease, 5 µM compound, replicate 1”, the “Replicate_1 (LOPAC_screen_w_protease)” value is given as 1.567. In addition, where the note is “LOPAC1280 primary screen with protease, 5 µM compound, replicate 2”, the “Replicate_2 (LOPAC_screen_w_protease)” value came to 1.103.

The molecule `CCS(=O)(=O)Nc1cccc(C(=C2CCCCC2)c2c[nH]cn2)c1` [A-315456] gave a mean under setting [1] of 0.823. Also, the Replicate_1 under setting [2] is recorded as 1.277. In addition, the Replicate_2 under setting [3] was determined as 0.3687.

For the molecule `CCn1c(=O)c2nc(-c3ccccc3)[nH]c2n(CC)c1=O` [1,3-Diethyl-8-phenylxanthine], the inhibition at 5 µM reads like this: under setting [5], 3.47%; under setting [6], 3.04%; under setting [7], 3.9%.

Under setting [8], `CC(C)[C@@]1(NC(=O)[C@@H]2C[C@@H]3c4cccc5[nH]cc(c45)C[C@H]3N(C)C2)O[C@@]2(O)[C@@H]3CCCN3C(=O)[C@H](Cc3ccccc3)N2C1=O.CS(=O)(=O)O` [Dihydroergocristine methanesulfonate] came in with a mean of 2.761. Further, under setting [9], the Replicate_1 amounted to 2.962. The molecule further had a Replicate_2 under setting [10] of 2.561.

For `COc1ccccc1N1CCN(CCCCNC(=O)c2ccc3ccccc3c2)CC1` [BP 897], the inhibition at 5 µM stood at 0.668% (LOPAC1280 primary screen with protease, 5 µM compound, replicate 1, read-out: Replicate_1 (LOPAC_screen_w_protease)) and 1.98% (LOPAC1280 primary screen with protease, 5 µM compound, replicate 2, read-out: Replicate_2 (LOPAC_screen_w_protease)). In addition, the “mean (LOPAC_screen_w_protease)” value under setting [4] worked out at 1.323.

Turning to `CC(CCc1ccccc1)NC(C)C(O)c1ccc(O)cc1` (stereo not drawn) [Nylidrin hydrochloride], the inhibition at 5 µM is, setting by setting: under setting [5], 3.76%; under setting [6], 4.88%; under setting [7], 2.65%.

`O=c1onc2n1-c1cc(Br)ccc1OC2` [NS 2028] showed a Replicate_1 of 5.339, a Replicate_2 of 3.612 and a mean of 4.476.

Molecule `C[C@H]1O[C@@H](n2cc(F)c(=O)[nH]c2=O)[C@H](O)[C@@H]1O` [5-fluoro-5'-deoxyuridine] showed a mean under setting [8] of 2.678. Further, the Replicate_1 under setting [9] is listed as 3.684. The molecule also returned a Replicate_2 under setting [10] of 1.673.

Turning to `CN1C2CCC1CC(OC(c1ccccc1)c1ccc(Cl)cc1)C2.Cl` (stereo not drawn), the “Replicate_1 (LOPAC_screen_w_protease)” value was found to be 2.149, the “Replicate_2 (LOPAC_screen_w_protease)” value is 0.9226 and the “mean (LOPAC_screen_w_protease)” value turned out to be 1.536.
